These results are taken from US20250368963A1, “PROXIMAL-BIASED KIDNEY ORGANOIDS” (UNIVERSITY OF SOUTHERN CALIFORNIA, priority 2024, published 2025).

Data set [1] concerns human iPSC-derived kidney organoids. Kind of data set: Comparison of PI3K inhibitors on kidney organoids. Format: cell-based.
Experimental: Small-molecule inhibitor screen and culture optimization: For all small molecule inhibitors used in this study, initial screens were performed on kidney organoids to determine the optimal dosage and duration of culture. […] Concentrations tested used insights from prior studies. After an ideal concentration was established, to determine optimal duration of treatment with the small molecule, separate differentiation experiments were set up with the small molecule from differentiation days 10 to 18, as well as differentiation days 12 to 18. For all optimization screens, time-course bright-field imaging was performed, and organoids were collected for whole-mount immunofluorescent analyses on differentiation day 18. […] Small-molecule inhibitor screen and culture optimization: For all small molecule inhibitors used in this study, initial screens were performed on kidney organoids to determine the optimal dosage and duration of culture. […] After an ideal concentration was established, to determine optimal duration of treatment with the small molecule, separate differentiation experiments were set up with the small molecule from differentiation days 10 to 18, as well as differentiation days 12 to 18. For all optimization screens, time-course bright-field imaging was performed, and organoids were collected for whole-mount immunofluorescent analyses on differentiation day 18.
The subject of data set [2] is human iPSC-derived kidney organoid nephrons. Kind of data set: Whole-mount immunofluorescence quantification of organoid nephrons. The conditions noted are these: vs controls. Format: cell-based.
The test system of data set [3] is kidney organoid nephrogenic cells. Kind of data set: Single-cell RNA-sequencing of kidney organoids. Format: cell-based, human. Here is the method: Kidney organoid cell dissociation: Approximately 6 organoids from multiple independent wells of both untreated and treated (48 hour culture with 10 μM LY294002 between days 10 and 12) conditions were collected at differentiation days 10, 12, 14, and 18 for single-cell RNA-sequencing, from separate differentiation batches. The organoids were dissociated using Accumax (Stem Cell Technologies, 07921) at 37° C./5% CO2 for 35 minutes and pipetted twenty times with a P-1000 wide-bore pipette tip every 5 minutes. The dissociation was neutralized by using a 2× volume of AutoMACS Running Buffer (Miltenyi Biotec, 130-091-221). Cells were pelleted by centrifugation at 4° C. for 3 minutes at 300×g. After resuspending the pellet in 2 mL of AutoMACS Running Buffer, cell suspensions were strained through 40 μm strainer (VWR, 21008-949), washing the filter with an additional 1 mL AutoMACS. The flow-through was pelleted, again at 300×g in a 4° C. for 3 minutes. […]
SPLiT-seq single-cell RNA-sequencing data collection and analyses: SPLiT-seq cell processing. […] Fixed cells were then stored at −80° C. until all samples were ready to be processed with the Evercode WT v2 single-cell RNA-sequencing platform (Parse Biosciences, ECW02030). […]

The test system of data set [4] is human iPSC-derived kidney organoids. Kind of data set: Bulk mRNA-sequencing of whole kidney organoids. The format is cell-based. The method, then:
mRNA-sequencing and data analyses: Whole organoid samples (3 independent biological replicates per timepoint, per condition for differentiation days 10 and 12, and 2 replicates for differentiation days 14 and 18) were prepared and purified according to the RNeasy Mini Kit (Qiagen, 74104). Purified RNA was sent to Novogene for sequencing. Reads were aligned to the hg38 Ensembl 105 annotation using STAR version 2.7.10a. A noise-reduction filter was applied to keep genes in which the maximum count in at least one sample was greater than or equal to 10. Partek Flow version 10.0 was then used to normalize these raw feature counts following the transcripts per million (TPM) normalization method. After filtering genes with TPM values greater than or equal to 25 in at least one sample, Z-score averages were calculated and heatmaps were clustered using pheatmap. Separately, gene set enrichment analyses were performed specifically on Day 12 replicate samples by first normalizing noise-reduced feature counts using the DESeq2 median ratio method, as recommended for gene set enrichment analyses. Partek Flow version 10.0 was then subsequently used for gene set enrichment analyses. Data are deposited with GEO accession number GSE264217 and will be made publicly available as of the date of publication.

In data set [5] the test system is day 21 proximal-biased kidney organoids. Kind of data set: Single-nucleus RNA-sequencing of cisplatin-treated PB organoids. Format: cell-based, human. The conditions noted are these: day 21, double-dose. Here is the method: Single-nucleus preparation of kidney organoids: For single-nucleus RNA-sequencing, the same number of organoids from multiple independent wells were snap-frozen in liquid nitrogen before nuclei isolation. Briefly, organoids were transferred to a 1.7 mL low binding tube, centrifuged to form a pellet, and snap-frozen in liquid nitrogen. Flash-frozen organoids were dounced in cold Nuclei EZ Lysis Buffer (Sigma, N3408) supplemented with protease inhibitor (Roche, 05892791001). Homogenization was performed using a loose pestle and tight pestle system (Sigma, P0485) with 15 loose-dounce strokes, followed by filtration through a 200 μm strainer (pluriSelect, 43-50200). The homogenate was then subjected to an additional 5 strokes with the tight pestle and incubated on ice for 5 minutes. The suspension was filtered through a 40 μm strainer (pluriSelect, 43-50040) and centrifuged at 500×g for 5 minutes at 4° C. in a swinging-bucket centrifuge. After removing the supernatant, the nuclei pellet was resuspended in just Nuclei EZ Lysis Buffer, incubated on ice for an additional 5 minutes, and centrifuged again. […]
Single-nucleus processing and sequencing: Single-nucleus RNA-sequencing libraries were generated using the 10× Genomics Chromium Next GEM Single Cell Multiome reagents (PN 1000283) following the manufacturer's protocols (10× Genomics; CG000338 Rev E). Briefly, freshly prepared single-nuclei suspensions were counted on a Countess 3 FL cell counter and approximately 9,000 nuclei per condition went through 1 hour of transposition at 37° C. followed by GEM generation and barcoding on a Chromium X machine with immediate subsequent RT reaction. cDNA was generated from 7 preAmp cycles and 8 cDNA cycles. […]
Single-nucleus RNA-sequencing analyses: Single-nucleus RNA-sequencing data was processed using Cell Ranger (v9.0.0) and the Seurat 5.2 R package. […] Feature-barcode matrices were subsequently imported into Seurat using the Read10× function. […]

In data set [6] the test system is control and proximal-biased kidney organoids. Kind of data set: In vitro cisplatin injury assay. The conditions noted are these: for HNF4A/SOX9 cell state: single cisplatin-dose. The format is cell-based, human. The method, then: In vitro cisplatin injury assay: For the kidney organoid cisplatin injury assay, the study adapted an approach undertaken by two recent studies. Differentiation day 18 control and proximal-biased organoids were incubated overnight (18 hrs) at 37° C./5% CO2 in TeSR-E6 supplemented with 5 μM cisplatin (Millipore Sigma, 232120). […] Uninjured organoids were cultured with DMSO vehicle. Organoids were then processed for immunofluorescent imaging and analyses. In vitro cisplatin injury assay: For the kidney organoid cisplatin injury assay, the study adapted an approach undertaken by two recent studies. Differentiation day 18 control and proximal-biased organoids were incubated overnight (18 hours) at 37° C./5% CO2 in TeSR-E6 supplemented with 5 μM cisplatin (Millipore Sigma, 232120). Organoids recovered between days 19 and 20, before another overnight culture (18 hours) between days 20 and 21 with 5 μM cisplatin. Uninjured organoids were cultured with DMSO vehicle. Organoids were then processed for immunofluorescent imaging and analyses.

The structures appear in SMILES notation.

For `CS(=O)(=O)N1CCN(Cc2cc3nc(-c4cccc5[nH]ncc45)nc(N4CCOCC4)c3s2)CC1` [GDC-0941], the “efficacy relative to LY294002” value in data set [1] (FIG. 11) is reported as “slightly less efficacy than LY294002”. In addition, the “proximal-biasing phenotype of PI3K inhibition” value in data set [1] (second, structurally different PI3K inhibitor) is reported as “confirmed”.

In the case of `O=c1cc(N2CCOCC2)oc2c(-c3ccccc3)cccc12` [Ly29, LY294002], in data set [2] (day 12 organoids), the “HNF1B+ nephron size increase” value was 1.64 fold; the “JAG1+ nephron size increase” value worked out at 2.36 fold; the “abundance of HNF1B within each nephron, increase” value came to 1.22 fold. Further, in data set [2] (day 18, n=3 organoids), the “sum total area of HNF4A+ organoid nephron segments, increase” value is listed as 2.83 fold. Further, in data set [2] (day 18 organoids), the “average size of individual HNF4A+ segments, increase” value came out at 1.30 fold and the “total number of HNF4A+ segments per organoid, increase” value was determined as 4.02 fold. In data set [3] (days 12, 14, 18 integrated), the “share of all HNF4A+ cells that originated from the PB condition” value came out at 72.7%. The “share of all HNF4A+ proximal tubule precursors that originated from the PB condition” value in data set [3] (scaled for total cell numbers) is on record as 70.8%. This compound also had an HNF1B expression upregulated in data set [4] (RNA-sequencing, day 12, 48 hr treatment, vs control) of 2.88 fold. Further, the “increase in JAG1 expression” value in data set [4] (RNA-sequencing, day 12, treated days 10-12, vs control) was found to be 1.78 fold. For the same compound, the “increase in HNF4A transcript levels” value in data set [4] (bulk RNA-sequencing, day 18, vs controls) turned out to be 2.31 fold. Moreover, in data set [4] (bulk RNA-sequencing, vs controls), the “increase in HNF4G transcript levels” value is 1.72 fold. Further, the “HNF4A expression at day 12” value in data set [4] (day 12, not detected) is less than 1.7 TPM.

On to `N.N.[Cl][Pt][Cl]` [cisplatin], for which the “HAVCR1 and SOX9 detection in injured cells” value in data set [5] (vs uninjured) is “higher detection”. In addition, the KRT17 detection result in data set [5] (proximal subset) is reported as “exclusively detected in the injured population”. The “cells positive for injury markers that originated from the injured population” value in data set [5] (proximal subset) is “approximately 75%”. In addition, in data set [6] (ATP1A1 and LAMB1 distribution, injured nephrons), the “tubular integrity and apicobasal polarity” value is “loss of tubular integrity and apicobasal polarity”. Besides, the “SOX9 response to injury” value in data set [6] (PB kidney organoid nephrons, double dose) was “activated SOX9”. Also, in data set [6] (cisplatin-injured PB nephrons, day 21), the “correlation of HNF4A protein levels with γH2AX (r)” value is reported as −0.67. Further, the “sensitivity of PB nephrons” value in data set [6] (day 18, 5 μM, 72 hrs) was “sensitive”. In data set [6] (day 21 PB organoids, uninjured vs injured), the “uninterrupted tubular lumens longer in uninjured samples” value came out at 2.82 fold. The “KIM1/HAVCR1 protein abundance higher in PB organoid nephrons” value in data set [6] (day 21 following injury, PB vs control organoid nephrons) is 1.56 fold. Also, the values for the HNF4A/SOX9 cell state result in data set [6] (1 day post-injury), in data set [6] (3 days post-injury) and in data set [6] (6 days post-injury) were “HNF4AHIGH/SOX9LOW”, “HNF4AMED/SOX9MED” and “HNF4ALOW/SOX9HIGH”, respectively. Further, in data set [6] (two staggered doses 5 μM, assayed 3 days after initial injury, PB organoids), the “KIM1/HAVCR1 in HNF4A+ PB nephron cells” value is recorded as “strong detection”. Besides, the “KIM1/HAVCR1 in injured control organoids” value in data set [6] (two staggered doses 5 μM, control organoids) is listed as “sparse”.
